Test results reported in article PMC7464559, “Synthesis, Optimization, Antifungal Activity, Selectivity, and CYP51 Binding of New 2-Aryl-3-azolyl-1-indolyl-propan-2-ols” (Pharmaceuticals, 2020).
≈ marks a conversion by molar mass, not a printed value. Like-named read-outs stand apart in the source and are kept apart here.

Tests used:
[1] = target: T1, 17α-hydroxylase/17,20-lyase (CYP17) (Homo sapiens, UniProt P05093); test: In vitro inhibition of 17α-hydroxylase/17,20-lyase; assay type: biochemical; conditions: mean of two experiments in duplicate
T1 sequence (P05093 1-508): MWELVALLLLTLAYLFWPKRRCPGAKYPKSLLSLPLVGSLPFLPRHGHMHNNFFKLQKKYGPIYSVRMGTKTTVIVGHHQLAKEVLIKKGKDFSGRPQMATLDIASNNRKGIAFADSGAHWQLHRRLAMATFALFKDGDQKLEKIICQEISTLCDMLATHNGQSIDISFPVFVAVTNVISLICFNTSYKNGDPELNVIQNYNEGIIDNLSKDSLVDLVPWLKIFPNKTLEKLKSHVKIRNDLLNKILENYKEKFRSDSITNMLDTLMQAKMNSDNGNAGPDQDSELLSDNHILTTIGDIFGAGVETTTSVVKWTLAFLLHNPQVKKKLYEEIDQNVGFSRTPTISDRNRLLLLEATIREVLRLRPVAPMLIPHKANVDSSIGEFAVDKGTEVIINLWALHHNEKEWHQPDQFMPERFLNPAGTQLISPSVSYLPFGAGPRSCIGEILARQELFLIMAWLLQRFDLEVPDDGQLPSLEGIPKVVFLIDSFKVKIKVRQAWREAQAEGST
Protocol: The assay was performed similar to described methods [29, 52]. […] Microsomal protein was added to start the reaction. […] After the addition of 1 mL EtOAc, the vials were shaken then centrifuged. The organic phase was removed, vortexed with phosphate buffer (250 µL), 1 M aqueous HCl (50 µL), and then dried. Aliquots of 25 µL methanol, containing 250 pmol of fluorocortisol acetate as internal standard, were added to the extracts. The samples (20 µL) were submitted to HPLC (RP-8 column, methanol/water 1:1, v/v) and measured using UV (240 nm).

[2] = tested on: human fetal lung fibroblast (MRC-5) cells; test: MRC5 toxicity assay; assay type: cell-based; conditions: 96-h incubation, mean of triplicate, read-out: Cytotoxicity IC50 on MRC-5 cells
Protocol: (§1) The cytotoxicity of compounds was studied with human fibroblast (MRC5). Cells were grown in RPMI 1640 medium (Sigma-Aldrich, Saint-Quentin Fallavier, France) supplemented with 10% fetal bovin serum (Sigma–Aldrich). Drugs were tested at three concentrations (100, 10, and 1 µM) in triplicate. After a 96-h incubation time, cytotoxicity was measured on the Fluorolite 1000 (Dynatech, Guyancourt, France) after a 4-h incubation time with Uptiblue® (Interchim, Montluçon, France). Inhibitory concentration 50 is a mean of triplicate values. A toxicity index was determined as follow: IC50 against MRC5/Geometric mean of the MICs against Candida spp..

MRC5 toxicity assay = assay type: cell-based, human; conditions: human, MRC-5 cells, 96-h incubation, mean of triplicate, read-out: Cytotoxicity IC50 on MRC-5 cells
Protocol: as §1

CK98002 (Candida krusei) = test: Anti-Candida in vitro assay, CK98002; assay type: cell-based; conditions: Pichia kudriavzevii; Candida krusei CK98002, mean of triplicate; read-out: MIC (IC80) CK98002
Protocol: (§2) Test fungal strains were obtained from the American Type Culture Collection (ATCC) or were clinical isolates from the Laboratory of Parasitology and Medical Mycology, Centre Hospitalier Universitaire (CHU) of Nantes. The strains were maintained on Sabouraud agar slants and were subcultured 24 h before used. The activity of the target compounds 8a–g and 11a–m was determined by the method previously described. Briefly, molecules were diluted in RPMI 1640 medium supplemented with 0.165 M morpholinopropanesulphonic acid (Sigma-Aldrich, Saint-Quentin Fallavier, France), 2% glucose, and antibiotics. Candida suspensions were prepared in RPMI 1640 medium (Sigma-Aldrich, Saint-Quentin Fallavier, France) adjusted to give a final concentration of 10^3 cells/mL, and a 96-well microplate (Nunc, D. Dutscher, Brumath, France) was seeded with 100 µL. Each concentration of molecules (100 µL) to be tested was added (in triplicate) and plates were incubated at 37 °C for 24 h. The cellular viability was evaluated on the Fluorolite 1000 (Dynatech, France) with an excitation at 550 nm and an emission at 590 nm after a 4 h incubation with 10 µL of Alamar Blue®. […] MIC was expressed as the mean of the triplicate values. KTC and FLC were used as standards.

[3] = tested on: ATCC90018 Candida parapsilosis strain; test: Anti-Candida in vitro assay, ATCC90018; assay type: cell-based; conditions: Lodderomyces parapsilosis; Candida parapsilosis ATCC90018, mean of triplicate; read-out: MIC (IC80) ATCC90018
Protocol: as §2

[4] = tested on: CA98005 (Candida albicans); test: Anti-Candida in vitro assay, CA98005; assay type: cell-based; conditions: Candida albicans CA98005, mean of triplicate; read-out: MIC (IC80) CA98005
Protocol: as §2

[5] = tested on: ATCC6258 Candida krusei strain; test: Anti-Candida in vitro assay, ATCC6258; assay type: cell-based; conditions: Pichia kudriavzevii; Candida krusei ATCC6258, mean of triplicate; read-out: MIC (IC80) ATCC6258
Protocol: as §2

[6] = tested on: ATCC2091 Candida albicans strain; test: Anti-Candida in vitro assay, ATCC2091; assay type: cell-based; conditions: Candida albicans ATCC2091, mean of triplicate; read-out: MIC (IC80) ATCC2091
Protocol: as §2

[7] = tested on: CA98002 (Candida albicans); test: Anti-Candida in vitro assay, CA98002; assay type: cell-based; conditions: Candida albicans CA98002, mean of triplicate; read-out: MIC (IC80) CA98002
Protocol: as §2

CK98003 (Candida krusei) = test: Anti-Candida in vitro assay, CK98003; assay type: cell-based; conditions: Pichia kudriavzevii; Candida krusei CK98003, mean of triplicate; read-out: MIC (IC80) CK98003
Protocol: as §2

C. albicans CA98001 = test: Anti-Candida in vitro assay (Alamar Blue), C. albicans CA98001; assay type: cell-based; conditions: MIC = IC80, 24 h at 37 °C, mean of triplicate; for MIC: Candida albicans, CA98001, 24 h
Protocol: as §2

aromatase (CYP19) = target: T2, aromatase (CYP19) (Homo sapiens, UniProt P11511); test: In vitro inhibition of aromatase; assay type: biochemical
T2 construct: Microsomal protein (0.1 mg) was added to start the reaction; from tissue; host or cells: microsomes; ('human placental microsomes')
T2 sequence (P11511 1-503): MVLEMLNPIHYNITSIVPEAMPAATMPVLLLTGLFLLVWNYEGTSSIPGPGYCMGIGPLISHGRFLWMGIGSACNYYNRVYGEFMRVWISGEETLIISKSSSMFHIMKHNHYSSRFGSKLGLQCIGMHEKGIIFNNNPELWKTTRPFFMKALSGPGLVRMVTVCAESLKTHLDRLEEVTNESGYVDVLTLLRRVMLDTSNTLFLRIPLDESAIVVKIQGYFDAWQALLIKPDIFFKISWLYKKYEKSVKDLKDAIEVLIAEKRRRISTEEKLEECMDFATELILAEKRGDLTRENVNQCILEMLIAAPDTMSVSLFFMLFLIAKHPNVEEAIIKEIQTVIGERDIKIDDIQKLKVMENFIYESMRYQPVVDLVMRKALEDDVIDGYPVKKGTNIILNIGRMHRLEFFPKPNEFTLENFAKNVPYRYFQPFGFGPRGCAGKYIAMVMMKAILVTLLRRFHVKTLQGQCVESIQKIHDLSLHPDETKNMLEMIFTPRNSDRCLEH
Protocol: The assay was performed according to previously described methods [49, 50, 51] by monitoring the enzyme activity by measuring the ^3H2O formed from [1β-^3H]androstenedione during aromatization. […] Microsomal protein (0.1 mg) was added to start the reaction. After incubation of 15 min at 30 °C, the reaction was stopped by adding 200 µL of a cold HgCl2 solution (1 mM). After the addition of 200 µL of an aqueous dextran-coated charcoal (DCC) suspension (2%), the vials were shaken then centrifuged to separate the charcoal-absorbed steroids. Aliquots of the supernatant were assayed for ^3H2O by counting in a scintillation mixture using a LKB-Wallac β-counter.

[8] = tested on: CL98001 (Candida lusitaniae); test: Anti-Candida in vitro assay, CL98001; assay type: cell-based; conditions: Clavispora lusitaniae; Candida lusitaniae CL98001, mean of triplicate; read-out: MIC (IC80) CL98001
Protocol: as §2

CYP11B1 = tested on: CYP11B1; set-up: method as in PMID 7663533; conditions: cited from earlier work
CYP11B2 = tested on: CYP11B2; set-up: method as in PMID 21193036; conditions: another similar study; cited from earlier work
[9] = MRC-5 human fetal lung fibroblast cells

Structure (SMILES)	IC50 [1] [µM]	melting point [°C]	MIC (CK98002 (Candida krusei)) [µg/mL]	MIC [3] [µg/mL]	MIC [4] [µg/mL]	MIC [5] [µg/mL]	MIC [6] [µg/mL]	MIC [7] [µg/mL]	MIC (CK98003 (Candida krusei)) [µg/mL]	MIC (C. albicans CA98001) [µg/mL]	inhibition at 36 µM (aromatase (CYP19); at 36 µM) [%]	IC50 (aromatase (CYP19); mean of at least two experiments in duplicate) [µM]	MIC [8] [µg/mL]	CYP17 IC50 [1]	IC50 [2] [µM]	IC50 at 96 h (MRC5 toxicity assay; [9]) [µM]	CYP11B1 inhibition (CYP11B1)	MIC (= IC80) C. albicans CA98001 (C. albicans CA98001) [µg/mL]	IC50 at 96 h (MRC5 toxicity assay) [µM]	CYP11B2 inhibition (CYP11B2) [%]
OC(Cn1cncn1)(Cn1cncn1)c1ccc(F)cc1F [FLC, fluconazole, reference compound]			2 (≈ 6.53 µM)	0.6 (≈ 1.96 µM)	0.57 (≈ 1.86 µM)	7.5 (≈ 24.5 µM)	0.07 (≈ 0.229 µM)	1 (≈ 3.27 µM)	6.7 (≈ 21.9 µM)	0.02 (≈ 0.0653 µM)			0.55 (≈ 1.8 µM)			> 100	minor inhibitor	0.02 (≈ 0.0653 µM)		
CC(=O)N1CCN(c2ccc(OCC3COC(Cn4ccnc4)(c4ccc(Cl)cc4Cl)O3)cc2)CC1 (stereo not drawn) [KTC, ketoconazole, reference compound]			0.37 (≈ 0.696 µM)	0.064 (≈ 0.12 µM)	0.006 (≈ 0.0113 µM)	0.079 (≈ 0.149 µM)	0.008 (≈ 0.0151 µM)	0.009 (≈ 0.0169 µM)	0.43 (≈ 0.809 µM)	0.005 (≈ 0.00941 µM)			0.007 (≈ 0.0132 µM)				strong inhibitor		69.1	100
N#Cc1ccc(C2CCCc3cncn32)cc1 (stereo not drawn) [fadrozole, reference compound]														not active						

More lines, main results first:

IC50 [1] [µM]	melting point [°C]	MIC (CK98002 (Candida krusei)) [µg/mL]	MIC [3] [µg/mL]	MIC [4] [µg/mL]	MIC [5] [µg/mL]	MIC [6] [µg/mL]	MIC [7] [µg/mL]	MIC (CK98003 (Candida krusei)) [µg/mL]	MIC (C. albicans CA98001) [µg/mL]	inhibition at 36 µM (aromatase (CYP19); at 36 µM) [%]	IC50 (aromatase (CYP19); mean of at least two experiments in duplicate) [µM]	MIC [8] [µg/mL]	CYP17 IC50 [1]	Structure (SMILES)	IC50 [2] [µM]	IC50 at 96 h (MRC5 toxicity assay; [9]) [µM]	CYP11B1 inhibition (CYP11B1)	MIC (= IC80) C. albicans CA98001 (C. albicans CA98001) [µg/mL]	IC50 at 96 h (MRC5 toxicity assay) [µM]	CYP11B2 inhibition (CYP11B2) [%]
0.15														COc1ccc2c(c1)CCC(Cc1cnc[nH]1)=C2C [BW19, 4-(6-methoxy-1-methyl-3,4-dihydro-naphthalen-2-ylmethyl)-1H-imidazole, reference compound]						
	119 to 120	1.55 (≈ 4.37 µM)	0.201 (≈ 0.567 µM)	0.064 (≈ 0.181 µM)	2.18 (≈ 6.15 µM)	0.021 (≈ 0.0593 µM)	0.026 (≈ 0.0734 µM)	24.1 (≈ 67.9 µM)	0.0198 (≈ 0.0559 µM)	89	3.58	0.021 (≈ 0.0593 µM)		OC(Cn1cncn1)(Cn1ccc2ccccc21)c1ccc(F)cc1F (stereo not drawn) [Compound 11d, 2-(2,4-Difluorophenyl)-3-(1H-indol-1-yl)-1-(1H-1,2,4-triazol-1-yl)-propan-2-ol]	~197	> 100				
	102 to 103	11.5 (≈ 30 µM)	4.01 (≈ 10.5 µM)	2.41 (≈ 6.3 µM)	18 (≈ 47 µM)	0.256 (≈ 0.669 µM)	0.382 (≈ 0.999 µM)	13.9 (≈ 36.4 µM)	0.157 (≈ 0.411 µM)			0.256 (≈ 0.669 µM)		Cc1c(C)n(CC(O)(Cn2cncn2)c2ccc(F)cc2F)c2ccccc12 (stereo not drawn) [Compound 11j, 2-(2,4-Difluorophenyl)-3-(2,3-dimethyl-1H-indol-1-yl)-1-(1H-1,2,4-triazol-1-yl)propan-2-ol]		25				
	123 to 124	20.2 (≈ 48.7 µM)	9.76 (≈ 23.5 µM)	2.99 (≈ 7.2 µM)	25.3 (≈ 60.9 µM)	2.74 (≈ 6.6 µM)	1.12 (≈ 2.7 µM)	> 41.5	1.25 (≈ 3 µM)			2.87 (≈ 6.9 µM)		Cc1c(C)n(CC(O)(Cn2cncn2)c2ccc(Cl)cc2Cl)c2ccccc12 (stereo not drawn) [Compound 11k, 2-(2,4-Dichlorophenyl)-3-(2,3-dimethyl-1H-indol-1-yl)-1-(1H-1,2,4-triazol-1-yl)propan-2-ol]	97.3	~97				
